Data on 3 compounds can be found in US20230365559A1, “NOVEL AMINOPYRIDINES AND THEIR USE IN TREATING CANCER” (priority 2020, published 2023).

Read-outs that look alike come from different tables or passages of the source.

The target in one assay is Ser2056 of DNA-PKcs (Homo sapiens, UniProt P78527). Description: Inhibition of cellular autophosphorylation at Ser2056 of DNA-PKcs in UT-SCC-54C cells, western immunoblotting. The settings on record: oxia, 10 Gy, FIG. 7 (10 μM). Format: cell-based. Background: In western blotting, separated proteins are transferred to a membrane and probed.
Assay [1] has as its target T1, Ser1981 of ataxia-telangiectasia mutated (ATM) (Homo sapiens, UniProt Q13315).
T1 construct: Ser1981 of ataxia-telangiectasia mutated (ATM) in UT-SCC-54C cells
Nature of the assay: Inhibition of phosphorylation of Ser1981 of ATM in UT-SCC-54C cells, western immunoblotting. The format is cell-based. The settings on record: oxia, 10 Gy, FIG. 7 (10 μM).

The subject of a further assay is HAP1 cells. Description: Radiosensitisation of HAP1 wild type cells, regrowth assay. The format is cell-based, human.
Another assay has as its target ATM (Homo sapiens, UniProt Q13315). Nature of the assay: ATM Human PIKK Kinase Enzymatic ELISA/EIA Assay, KinaseProfiler (Eurofins Discovery). The format is biochemical. The settings on record: read-out: ATM, Percent of control at 1 μM. (In general: An ELISA detects its analyte on a solid surface through an enzyme-linked reagent.)
A further assay deals with human mTOR (Homo sapiens, UniProt P42345). Description: Inhibition of mTOR kinase activity, HotSpot assay, phosphorylation of 4EPB1.
Assay [2] has as its system UT-SCC-54C cells. Nature of the assay: Radiosensitisation of UT-SCC-54C HNSCC cells, clonogenic survival, oxic and anoxic (Table 18). Format: cell-based, human. The settings on record: 20% O2, compound conc 1 μM.
In a further assay the target is human DNA-PK (Homo sapiens, UniProt P78527). Nature of the assay: Inhibition of DNA-PKcs kinase activity, HotSpot assay (Reaction Biology), [γ-33P]-ATP phosphorylation of peptide substrate. The format is biochemical.
The next assay has as its target ATR/ATRIP (Homo sapiens, UniProt Q13535). Nature of the assay: ATR/ATRIP Human PIKK Kinase Enzymatic Radiometric Assay, KinaseProfiler (Eurofins Discovery). Format: biochemical. The settings on record: Km ATP, Table 15, read-out: Inhibition of PIKK kinase activity ATR.
Assay [3] has as its system UT-SCC-54C cells. Nature of the assay: Radiosensitisation of UT-SCC-54C HNSCC cells, regrowth (sulforhodamine B) assay, oxic (Table 16). Format: cell-based, human.
The next assay concerns the target human PI3Kα (p110α/p85α) (Homo sapiens, UniProt P42336). Nature of the assay: Inhibition of PI3Kα kinase activity, ADP-Glo Assay (Reaction Biology). The format is biochemical. The settings on record: 10 μM ATP; mean of two replicates; Table 12; read-out: Inhibition of kinase activity (as IC50) PICK. (In general: In ADP-Glo the light output rises with the ADP produced.)

The subject of a further assay is HAP1/PRKDC−/− cells. Nature of the assay: Radiosensitisation of DNA-PK null HAP1/PRKDC−/− cells, regrowth assay. The format is cell-based, human.

Sequence of human PI3Kα (p110α/p85α) (P42336 whole entry): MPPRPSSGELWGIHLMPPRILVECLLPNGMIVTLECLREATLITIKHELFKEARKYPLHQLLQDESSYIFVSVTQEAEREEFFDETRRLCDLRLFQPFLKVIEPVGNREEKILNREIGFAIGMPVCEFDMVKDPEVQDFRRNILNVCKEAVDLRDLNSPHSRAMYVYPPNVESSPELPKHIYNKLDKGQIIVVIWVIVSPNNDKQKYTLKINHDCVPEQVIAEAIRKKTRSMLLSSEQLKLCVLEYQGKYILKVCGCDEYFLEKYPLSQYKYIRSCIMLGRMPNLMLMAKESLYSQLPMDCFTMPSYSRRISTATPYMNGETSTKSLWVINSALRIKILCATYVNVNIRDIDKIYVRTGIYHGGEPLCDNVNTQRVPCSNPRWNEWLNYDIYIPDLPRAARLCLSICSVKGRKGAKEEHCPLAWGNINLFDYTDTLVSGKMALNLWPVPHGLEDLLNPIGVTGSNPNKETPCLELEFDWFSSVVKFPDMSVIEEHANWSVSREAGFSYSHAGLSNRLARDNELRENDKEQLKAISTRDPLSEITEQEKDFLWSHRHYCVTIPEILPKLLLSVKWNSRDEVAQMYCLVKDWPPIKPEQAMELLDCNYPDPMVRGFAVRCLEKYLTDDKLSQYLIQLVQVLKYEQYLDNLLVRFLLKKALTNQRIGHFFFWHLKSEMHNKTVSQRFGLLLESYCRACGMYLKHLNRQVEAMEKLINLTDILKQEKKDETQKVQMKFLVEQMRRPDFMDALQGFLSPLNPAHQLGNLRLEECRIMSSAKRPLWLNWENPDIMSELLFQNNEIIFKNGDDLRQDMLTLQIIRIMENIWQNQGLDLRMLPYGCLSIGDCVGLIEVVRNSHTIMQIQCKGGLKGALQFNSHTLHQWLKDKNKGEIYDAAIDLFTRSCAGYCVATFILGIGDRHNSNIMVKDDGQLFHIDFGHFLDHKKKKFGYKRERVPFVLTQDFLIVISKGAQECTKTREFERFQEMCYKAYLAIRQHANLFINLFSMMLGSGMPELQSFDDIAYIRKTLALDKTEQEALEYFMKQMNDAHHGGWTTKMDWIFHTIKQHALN
Sequence of human PI3Kα (p110α/p85α) (P27986 whole entry partner): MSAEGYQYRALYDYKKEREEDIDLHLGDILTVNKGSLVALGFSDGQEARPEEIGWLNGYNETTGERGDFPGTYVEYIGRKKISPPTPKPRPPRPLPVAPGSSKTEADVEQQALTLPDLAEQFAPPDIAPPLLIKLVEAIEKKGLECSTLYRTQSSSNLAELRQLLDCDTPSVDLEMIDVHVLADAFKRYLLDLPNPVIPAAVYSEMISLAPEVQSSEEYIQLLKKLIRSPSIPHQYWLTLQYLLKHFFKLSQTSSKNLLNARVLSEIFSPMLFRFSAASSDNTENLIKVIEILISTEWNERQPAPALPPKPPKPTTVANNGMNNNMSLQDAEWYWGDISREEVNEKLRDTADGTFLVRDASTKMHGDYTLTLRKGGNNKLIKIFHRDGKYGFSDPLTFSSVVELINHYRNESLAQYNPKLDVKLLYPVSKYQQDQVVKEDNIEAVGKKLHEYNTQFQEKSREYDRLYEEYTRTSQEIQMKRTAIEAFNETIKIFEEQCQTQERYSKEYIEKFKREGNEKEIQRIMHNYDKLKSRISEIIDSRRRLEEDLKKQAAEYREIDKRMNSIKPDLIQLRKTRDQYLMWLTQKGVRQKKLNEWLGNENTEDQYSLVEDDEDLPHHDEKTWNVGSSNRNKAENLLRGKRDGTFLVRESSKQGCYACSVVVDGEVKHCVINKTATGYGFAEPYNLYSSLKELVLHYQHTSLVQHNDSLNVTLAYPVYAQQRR
T1 sequence (Q13315 whole entry, change not shown): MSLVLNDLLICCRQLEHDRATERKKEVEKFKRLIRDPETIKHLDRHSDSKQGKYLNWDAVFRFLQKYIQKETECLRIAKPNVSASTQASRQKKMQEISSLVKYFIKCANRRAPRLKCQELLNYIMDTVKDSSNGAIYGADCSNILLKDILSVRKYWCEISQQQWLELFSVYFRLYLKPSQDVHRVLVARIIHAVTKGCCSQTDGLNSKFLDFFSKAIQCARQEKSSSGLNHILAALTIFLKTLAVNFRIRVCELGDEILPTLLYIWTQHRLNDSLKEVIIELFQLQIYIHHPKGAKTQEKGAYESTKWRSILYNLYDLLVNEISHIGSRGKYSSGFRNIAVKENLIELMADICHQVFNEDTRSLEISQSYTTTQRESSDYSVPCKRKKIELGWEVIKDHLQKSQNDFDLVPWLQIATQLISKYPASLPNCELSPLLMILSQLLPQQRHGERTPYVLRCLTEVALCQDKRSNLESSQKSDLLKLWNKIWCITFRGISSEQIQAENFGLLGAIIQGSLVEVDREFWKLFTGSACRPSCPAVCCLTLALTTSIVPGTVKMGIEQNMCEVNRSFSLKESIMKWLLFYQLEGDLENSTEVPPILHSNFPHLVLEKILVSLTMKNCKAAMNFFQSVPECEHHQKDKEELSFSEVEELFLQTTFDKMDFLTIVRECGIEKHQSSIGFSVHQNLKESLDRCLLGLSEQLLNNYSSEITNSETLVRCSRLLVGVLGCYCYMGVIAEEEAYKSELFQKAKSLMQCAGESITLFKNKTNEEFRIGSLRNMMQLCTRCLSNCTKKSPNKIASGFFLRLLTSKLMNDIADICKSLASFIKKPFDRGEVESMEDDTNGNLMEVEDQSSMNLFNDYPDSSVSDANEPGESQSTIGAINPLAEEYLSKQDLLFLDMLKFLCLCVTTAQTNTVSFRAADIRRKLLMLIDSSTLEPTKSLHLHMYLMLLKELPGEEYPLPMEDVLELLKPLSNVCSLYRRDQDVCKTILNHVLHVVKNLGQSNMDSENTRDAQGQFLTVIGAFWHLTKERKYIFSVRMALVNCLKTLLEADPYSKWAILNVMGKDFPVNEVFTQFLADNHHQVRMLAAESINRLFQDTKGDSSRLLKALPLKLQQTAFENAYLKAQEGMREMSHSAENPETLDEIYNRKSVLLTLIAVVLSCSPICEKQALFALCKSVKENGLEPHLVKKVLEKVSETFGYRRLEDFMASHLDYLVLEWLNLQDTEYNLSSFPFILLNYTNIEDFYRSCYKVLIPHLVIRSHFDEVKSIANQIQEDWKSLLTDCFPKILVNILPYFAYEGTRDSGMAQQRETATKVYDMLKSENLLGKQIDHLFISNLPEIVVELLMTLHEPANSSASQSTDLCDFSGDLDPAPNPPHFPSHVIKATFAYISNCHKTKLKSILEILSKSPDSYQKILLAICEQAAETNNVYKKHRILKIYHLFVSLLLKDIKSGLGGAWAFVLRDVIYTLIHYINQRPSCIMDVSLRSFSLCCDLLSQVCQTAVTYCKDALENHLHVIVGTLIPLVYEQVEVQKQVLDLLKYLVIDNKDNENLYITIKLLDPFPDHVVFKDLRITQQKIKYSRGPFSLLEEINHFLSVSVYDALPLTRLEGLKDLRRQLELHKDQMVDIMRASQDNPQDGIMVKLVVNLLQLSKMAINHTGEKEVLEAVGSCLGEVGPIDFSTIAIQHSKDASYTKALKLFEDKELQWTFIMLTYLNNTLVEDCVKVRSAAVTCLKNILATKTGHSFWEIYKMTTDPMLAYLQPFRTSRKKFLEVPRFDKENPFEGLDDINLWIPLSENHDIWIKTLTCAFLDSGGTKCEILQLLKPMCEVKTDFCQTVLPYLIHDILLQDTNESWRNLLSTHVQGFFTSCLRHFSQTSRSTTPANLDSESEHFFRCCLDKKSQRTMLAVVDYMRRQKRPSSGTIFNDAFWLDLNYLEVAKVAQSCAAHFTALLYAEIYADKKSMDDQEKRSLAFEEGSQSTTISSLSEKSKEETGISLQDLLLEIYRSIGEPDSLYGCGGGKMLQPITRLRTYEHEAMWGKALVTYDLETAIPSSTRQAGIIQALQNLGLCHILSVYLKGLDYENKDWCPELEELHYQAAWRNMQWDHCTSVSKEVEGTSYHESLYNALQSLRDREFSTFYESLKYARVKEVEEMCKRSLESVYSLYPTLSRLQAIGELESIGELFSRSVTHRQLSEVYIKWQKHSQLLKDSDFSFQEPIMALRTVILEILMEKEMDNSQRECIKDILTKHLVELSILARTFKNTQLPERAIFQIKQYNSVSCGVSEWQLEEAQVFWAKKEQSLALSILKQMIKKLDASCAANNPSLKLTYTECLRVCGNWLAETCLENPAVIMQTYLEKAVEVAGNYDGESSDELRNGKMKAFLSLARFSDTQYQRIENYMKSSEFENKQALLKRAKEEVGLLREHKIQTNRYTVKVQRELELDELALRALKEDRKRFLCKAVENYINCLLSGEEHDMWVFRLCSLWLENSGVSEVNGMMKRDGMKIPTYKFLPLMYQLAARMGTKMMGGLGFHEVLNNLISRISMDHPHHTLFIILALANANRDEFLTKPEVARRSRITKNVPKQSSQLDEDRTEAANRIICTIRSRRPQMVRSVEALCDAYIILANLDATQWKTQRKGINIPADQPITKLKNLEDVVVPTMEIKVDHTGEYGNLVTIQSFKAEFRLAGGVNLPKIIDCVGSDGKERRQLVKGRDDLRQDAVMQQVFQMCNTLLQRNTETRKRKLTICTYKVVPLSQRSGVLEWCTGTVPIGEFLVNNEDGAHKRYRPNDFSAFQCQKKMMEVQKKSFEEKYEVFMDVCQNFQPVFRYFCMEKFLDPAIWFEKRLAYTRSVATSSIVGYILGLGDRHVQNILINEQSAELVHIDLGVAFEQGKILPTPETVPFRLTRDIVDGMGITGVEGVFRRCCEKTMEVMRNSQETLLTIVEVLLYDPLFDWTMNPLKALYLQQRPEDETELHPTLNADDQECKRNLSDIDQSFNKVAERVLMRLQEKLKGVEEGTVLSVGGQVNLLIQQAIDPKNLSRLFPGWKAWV
Sequence of ATM (Q13315 whole entry): as the sequence (Q13315 whole entry, change not shown) above

Consider `COc1ccc([C@@H](O)c2cc(-c3ncnc4cc(N5CCOCC5)ccc34)c(F)cc2Cl)nn1` [Compound M3814, reference compound], for which the “inhibition of Ser2056 on DNA-PKcs” value at Ser2056 of DNA-PKcs is “demonstrated inhibition”.
Regarding `CC(C)n1c(=O)n(C)c2cnc3cc(F)c(-c4ccc(OCCCN5CCCCC5)nc4)cc3c21` [AZD1393, reference compound], the “inhibition of Ser2056 on DNA-PKcs” value at Ser2056 of DNA-PKcs was “did not affect”. Also, in assay [1], the “inhibition of phosphorylation of Ser1981 on ATM” value is reported as “inhibited”.
`Cc1cc2ncnn2cc1Nc1cc2c(cn1)n(C)c(=O)n2C1CCOCC1` [Compound 125, 3-Methyl-6-((7-methyl-[1,2,4]triazolo[1,5-a]pyridin-6-yl)amino)-1-(tetrahydro-2H-pyran-4-yl)-1,3-dihydro-2H-imidazo[4,5-c]pyridin-2-one]: the “effect in unirradiated HAP1 cells” value with HAP1 cells (0 Gy) is “little effect”. Also, the “radiosensitisation / differential growth inhibition of HAP1 cells” value with HAP1 cells (3 Gy cobalt-60 gamma irradiation relative to radiation-only) is “concentration-dependent radiosensitisation”. The IC50 is above 10 µM in the assay with HAP1 cells (Homo sapiens, HAP1, read-out: HAP1 wt IC50); 43900 nM at human mTOR (Inhibition of PIKK kinase activity mTOR/FRAP (nM), HotSpot assay Reaction Biology Corp., Table 15); 43900 nM at human mTOR (Inhibition of kinase activity (as IC50) mTOR (nM), 10 μM ATP, mean of two replicates, Table 12); 0.0143 µM at human DNA-PK (10 μM ATP, 10 μg/ml DNA, mean of two replicates, Table 12, read-out: Inhibition of kinase activity (as IC50) DNA-PK (converted)); 0.0143 µM on human DNA-PK (HotSpot assay Reaction Biology Corp., Table 15, read-out: Inhibition of PIKK kinase activity DNA-PK); above 1 µM at ATR/ATRIP. In addition, the IC50 in the assay with UT-SCC-54C cells [3] (Homo sapiens, read-out: IC50) is above 10 µM; at human PI3Kα (p110α/p85α), 10.7 µM; in the assay on HAP1/PRKDC−/− cells (Homo sapiens, HAP1), above 10 µM. For the same compound, the remaining activity at 1 µM on ATM is 74%. In the assay on UT-SCC-54C cells [2], the “D1 (radiation dose for 1% surviving fraction)” value was found to be 4.90 Gy. For the same compound, the “D10 (radiation dose for 10% surviving fraction)” value in the assay with UT-SCC-54C cells [2] is on record as 2.49 Gy. In the assay on UT-SCC-54C cells [2], the “SER1 (sensitiser enhancement ratio at 1% surviving fraction)” value turned out to be 1.77. The “SER10 (sensitiser enhancement ratio at 10% surviving fraction)” value in the assay with UT-SCC-54C cells [2] worked out at 2.17. Further, the “Plating efficiency drug/no drug” value in the assay with UT-SCC-54C cells [2] (no radiation) worked out at 1.02. Moreover, in the assay with UT-SCC-54C cells [3] (compound in combination with 3 Gy of radiation, 50% inhibition of regrowth fraction, UT-SCC-54C, oxic), the “S50” value came out at 0.67 µM. For the same compound, the “radiosensitisation / differential growth inhibition of DNA-PK null HAP1 line” value in the assay on HAP1/PRKDC−/− cells (3 Gy, HAP1/PRKDC−/−) is on record as “did not radiosensitise”.
